Data: the NIST ThermoML archive (doi:10.1016/j.jct.2012.11.032)

Test: xn = mol fraction of the nth substance listed
Settings: 101 kPa, Liquid; for speed of sound: Sing-around technique in a fixed-path interferometer; for mass density: Vibrating tube method

CCCCCCCCCCn1cc[n+](C)c1.[Cl-] [1-decyl-3-methylimidazolium chloride] + O
Settings | mass density [kg/m3] | speed of sound [m/s]
283 K, x1 = 0.000105 | 999.733 | 1449.9
283 K, x1 = 0.000185 | 999.76 | 1451.1
283 K, x1 = 0.000277 | 999.776 | 1452.4
283 K, x1 = 0.000377 | 999.82 | 1453.9
283 K, x1 = 0.000452 | 999.839 | 1454.6
283 K, x1 = 0.000546 | 999.878 | 1455.8
283 K, x1 = 0.000728 | 999.945 | 1458.5
283 K, x1 = 0.000836 | 999.997 | 1460.3
283 K, x1 = 0.001002 | 1000.05 | 1462.6
283 K, x1 = 0.001099 | 1000.05 | 1463.7
283 K, x1 = 0.00118 | 1000.1 | 1464.7
283 K, x1 = 0.001259 | 1000.11 | 1465
283 K, x1 = 0.001351 | 1000.13 | 1465.9
283 K, x1 = 0.001452 | 1000.14 | 1466.5
283 K, x1 = 0.001539 | 1000.14 | 1467.1
283 K, x1 = 0.001631 | 1000.14 | 1467.9
283 K, x1 = 0.001869 | 1000.13 | 1468.9
283 K, x1 = 0.001988 | 1000.13 | 1469.3
288 K, x1 = 0.000105 | 999.142 | 1467.8
288 K, x1 = 0.000185 | 999.164 | 1468.9
288 K, x1 = 0.000277 | 999.176 | 1470.2
288 K, x1 = 0.000377 | 999.206 | 1471.5
288 K, x1 = 0.000452 | 999.216 | 1472.4
288 K, x1 = 0.000546 | 999.247 | 1473.5
288 K, x1 = 0.000728 | 999.3 | 1476
288 K, x1 = 0.000836 | 999.347 | 1477.5
288 K, x1 = 0.001002 | 999.38 | 1479.5
288 K, x1 = 0.001099 | 999.375 | 1480.5
288 K, x1 = 0.00118 | 999.412 | 1481.3
288 K, x1 = 0.001259 | 999.417 | 1481.7
288 K, x1 = 0.001351 | 999.423 | 1482.5
288 K, x1 = 0.001452 | 999.42 | 1483
288 K, x1 = 0.001539 | 999.421 | 1483.4
288 K, x1 = 0.001631 | 999.412 | 1483.9
288 K, x1 = 0.001869 | 999.393 | 1484.8
288 K, x1 = 0.001988 | 999.38 | 1485.2
293 K, x1 = 0.000105 | 998.25 | 1483.9
293 K, x1 = 0.000185 | 998.269 | 1484.9
293 K, x1 = 0.000277 | 998.279 | 1486
293 K, x1 = 0.000377 | 998.297 | 1487.2
293 K, x1 = 0.000452 | 998.301 | 1488.1
293 K, x1 = 0.000546 | 998.325 | 1489.2
293 K, x1 = 0.000728 | 998.361 | 1491.4
293 K, x1 = 0.000836 | 998.402 | 1492.8
293 K, x1 = 0.001002 | 998.424 | 1494.6
293 K, x1 = 0.001099 | 998.408 | 1495.4
293 K, x1 = 0.00118 | 998.437 | 1496.1
293 K, x1 = 0.001259 | 998.436 | 1496.5
293 K, x1 = 0.001351 | 998.434 | 1497.1
293 K, x1 = 0.001452 | 998.423 | 1497.6
293 K, x1 = 0.001539 | 998.415 | 1497.9
293 K, x1 = 0.001631 | 998.403 | 1498.3
293 K, x1 = 0.001869 | 998.372 | 1499
293 K, x1 = 0.001988 | 998.354 | 1499.4
298 K, x1 = 0.000105 | 997.096 | 1498
298 K, x1 = 0.000185 | 997.108 | 1498.9
298 K, x1 = 0.000277 | 997.114 | 1500
298 K, x1 = 0.000377 | 997.124 | 1501.1
298 K, x1 = 0.000452 | 997.122 | 1501.8
298 K, x1 = 0.000546 | 997.141 | 1502.8
298 K, x1 = 0.000728 | 997.166 | 1504.9
298 K, x1 = 0.000836 | 997.199 | 1506.1
298 K, x1 = 0.001002 | 997.205 | 1507.7
298 K, x1 = 0.001099 | 997.182 | 1508.4
298 K, x1 = 0.00118 | 997.205 | 1509
298 K, x1 = 0.001259 | 997.199 | 1509.4
298 K, x1 = 0.001351 | 997.192 | 1509.9
298 K, x1 = 0.001452 | 997.175 | 1510.3
298 K, x1 = 0.001539 | 997.164 | 1510.6
298 K, x1 = 0.001631 | 997.146 | 1510.9
298 K, x1 = 0.001869 | 997.078 | 1511.5
298 K, x1 = 0.001988 | 997.079 | 1511.8
303 K, x1 = 0.000105 | 995.704 | 1510.3
303 K, x1 = 0.000185 | 995.706 | 1511.1
303 K, x1 = 0.000277 | 995.707 | 1512.1
303 K, x1 = 0.000377 | 995.711 | 1513.1
303 K, x1 = 0.000452 | 995.705 | 1513.8
303 K, x1 = 0.000546 | 995.718 | 1514.7
303 K, x1 = 0.000728 | 995.732 | 1516.6
303 K, x1 = 0.000836 | 995.759 | 1517.7
303 K, x1 = 0.001002 | 995.75 | 1519.2
303 K, x1 = 0.001099 | 995.72 | 1519.7
303 K, x1 = 0.00118 | 995.739 | 1520.3
303 K, x1 = 0.001259 | 995.728 | 1520.6
303 K, x1 = 0.001351 | 995.715 | 1521
303 K, x1 = 0.001452 | 995.694 | 1521.5
303 K, x1 = 0.001539 | 995.683 | 1521.6
303 K, x1 = 0.001631 | 995.659 | 1521.9
303 K, x1 = 0.001869 | 995.549 | 1522.4
303 K, x1 = 0.001988 | 995.574 | 1522.6
308 K, x1 = 0.000105 | 994.091 | 1520.9
308 K, x1 = 0.000185 | 994.084 | 1521.6
308 K, x1 = 0.000277 | 994.08 | 1522.5
308 K, x1 = 0.000377 | 994.079 | 1523.4
308 K, x1 = 0.000452 | 994.068 | 1524.1
308 K, x1 = 0.000546 | 994.074 | 1524.9
308 K, x1 = 0.000728 | 994.082 | 1526.7
308 K, x1 = 0.000836 | 994.1 | 1527.7
308 K, x1 = 0.001002 | 994.083 | 1528.9
308 K, x1 = 0.001099 | 994.044 | 1529.4
308 K, x1 = 0.00118 | 994.057 | 1529.9
308 K, x1 = 0.001259 | 994.044 | 1530.2
308 K, x1 = 0.001351 | 994.028 | 1530.5
308 K, x1 = 0.001452 | 994.006 | 1531
308 K, x1 = 0.001539 | 993.985 | 1531.1
308 K, x1 = 0.001631 | 993.962 | 1531.3
308 K, x1 = 0.001869 | 993.807 | 1531.7
308 K, x1 = 0.001988 | 993.859 | 1531.9
313 K, x1 = 0.000105 | 992.269 | 1529.9
313 K, x1 = 0.000185 | 992.257 | 1530.5
313 K, x1 = 0.000277 | 992.252 | 1531.4
313 K, x1 = 0.000377 | 992.242 | 1532.2
313 K, x1 = 0.000452 | 992.229 | 1532.8
313 K, x1 = 0.000546 | 992.227 | 1533.5
313 K, x1 = 0.000728 | 992.229 | 1535.1
313 K, x1 = 0.000836 | 992.239 | 1536
313 K, x1 = 0.001002 | 992.214 | 1537.2
313 K, x1 = 0.001099 | 992.17 | 1537.6
313 K, x1 = 0.00118 | 992.176 | 1538
313 K, x1 = 0.001259 | 992.167 | 1538.3
313 K, x1 = 0.001351 | 992.142 | 1538.6
313 K, x1 = 0.001452 | 992.118 | 1539
313 K, x1 = 0.001539 | 992.095 | 1539
313 K, x1 = 0.001631 | 992.066 | 1539.2
313 K, x1 = 0.001869 | 991.864 | 1539.5
313 K, x1 = 0.001988 | 991.947 | 1539.7
